How the values were obtained:
B16-F10.9 melanoma [1] = assay: Rechallenge with B16-F10.9 cells of mice cured by LEFCT-EC; format: in vivo, C57BL/6 mice
Description: FIG. 17 is a data plot depicting the cumulative survival of mice previously bearing B16-F10.9 melanoma and cured by LEFCT-EC with cisplatin or taxol following challenge with B16-F10.9 melanoma cells. Mice cured by LEF-chemotherapy that survived for 120-180 days after initial tumor inoculation, were challenged with 2×10^5 B16-F10.9 cells subcutaneously.
Effect of curative LEFCT-EC treatment on generation of anti B16-F10.9 tumor resistance: The resistance of mice cured of B16-F10.9 melanoma by LEF-chemotherapy was analyzed by challenging such cured mice with a tumorigenic dose of B16-F 10.9 melanoma cells.

[2] = system: DA3 mammary adenocarcinoma; assay: LEFCT-EC in mice bearing DA3 mammary adenocarcinoma; format: in vivo, BALB/c mice
Experimental: Animals: BALB/c female mice between the ages of 8 to 12 weeks obtained from the breeding colony of Tel-Aviv University, Israel were used in vivo tumor therapy experiments. Animal care and experimentation was carried out in accordance with Tel-Aviv University guidelines.
Tumor cell line: The highly metastatic, poorly immunogenic mammary adenocarcinoma cell line DA3 (Lopez D M. et al., 1981. J Natl Cancer Inst. 66:191) was used to generate mammary carcinoma tumors in mice. Cells were grown in DMEM supplemented with 100 U/ml penicillin, 100 μg/ml streptomycin, 4 mM glutamine, 1 mM sodium pyruvate, 1% non-essential amino acids and 10% heat-inactivated fetal calf serum (FCS), and cultured at 37° C. in a humidified incubator in an atmosphere of 7% carbon dioxide and 93% air. Tumors of this cell line grown to 1 cm in diameter produce metastatic cells, mainly in the lungs.
Reagents: Taxol (Mead Johnson Oncology Products, A Bristol-Myers Squibb, USA), obtained as a sterile nonpyrogenic solution containing 6 mg/ml paclitaxel, 527 mg/ml of purified Cremophor EL (polyoxyethylated castor oil) and 49.7% (v/v) dehydrated ethanol; and bleomycin (MegaPharm, Israel) were the anti cancer drugs used.
Low-strength electric field enhanced cancer chemotherapy protocol: Mice were subjected to a single treatment of LEF-chemotherapy, once primary tumors reached 5 mm in diameter (about 60-70 mm^3) (11-17 days following subcutaneous tumor cell inoculation). Up to 100 μl of chemotherapeutic agents was injected into the tumor loci. The exposure to electric field was carried out as described above in Example 2 of the Examples section.
Effect of LEFCT-EC using bleomycin or taxol on the survival of DA3 mammary adenocarcinoma bearing nice: BALB/c mice bearing DA3 mammary adenocarcinoma were treated by LEF-chemotherapy with intratumoral taxol (20 mg/kg) (FIG. 19) or bleomycin (30 U/kg) (FIG. 20) administration and their survival rate was compared with that of mice treated only with LEF or chemotherapy.

B16-F10.9 melanoma [3] = assay: LEFCT-EC in mice bearing subcutaneous B16-F10.9 melanoma; format: in vivo, C57BL/6 mice; settings: for Tumor size (mean ± standard error): 7 days after treatment
Experimental: Animals: C57BL/6 male mice were obtained from the breeding colony of Tel-Aviv University, Israel. Mice were used at 8-12 weeks of age. Animal care and experimentation was carried out in accordance with Tel-Aviv University guidelines.
Melanoma tumor cell line: The highly metastatic, poorly immunogenic B16-F10.9 (F10.9) subclone of the B16 melanoma cell line was used to generate melanoma tumors in mice (Eisenbach L. et al., 1984. Int J Cancer 34:567). Cells were maintained in DMEM supplemented with 100 U/ml penicillin, 100 μg/ml streptomycin, 4 mM glutamine, 1 mM sodium pyruvate, 1% non-essential amino acids and 10% heat-inactivated fetal calf serum (FCS); and were cultured at 37° C. in a humidified incubator in an atmosphere of 7% carbon dioxide and 93% air.
Tumor generation protocol: F10.9 tumors were induced in C57BL/6 mice by subcutaneous injection of 2×10^5 F10.9 cells. Mice were subjected to experimental treatments once tumors reached 5 mm in diameter (about 60-70 mm^3). Chemotherapeutic drugs: The following chemotherapeutic drugs used were: cis-platinum (II) diamminedichloride (cisplatin; #P-4394, Sigma, Israel), dissolved in PBS for injections; Taxol (Mead Johnson Oncology Products, A Bristol-Myers Squibb, USA), obtained as a sterile nonpyrogenic solution containing 6 mg/ml paclitaxel, 527 mg/ml of purified Cremophor EL (polyoxyethylated castor oil) and 5-FU (Abic, Israel).
Low-strength electric field enhanced cancer therapy protocol: Mice were subjected to a single treatment of LEFCT-EC, once tumors reached 5 mm in diameter (11-17 days following tumor cell inoculation). Volumes of up to 100 μl of chemotherapeutic agents were injected into tumor loci, and exposures to electric fields were carried out 3-4 min following intratumoral injection of chemotherapeutic agents. To expose tumors to electric fields, stainless steel electrode needles (Karlsbader insect pins No 0. BioQuip Products, USA) soldered at their brassy ends with thin isolated copper wires were used. Electrodes were inserted to a depth of about 7 mm percutaneously into and in the immediate vicinity of the tumor; one cathode needle in the center of the tumor and three peripheral anodes, at a distance of about 5 mm from the cathode. The needles were connected to an electric pulse generator (Grass S48 Stimulator, USA). The field strength applied was about 40 V/cm; the repetition frequency, 500 Hz; and the pulse width, 180 μs. All mice were anesthetized prior to LEF treatment.
Statistical analysis: Statistical analysis of survival times (Kaplan-Meir test), survival comparisons between groups (Mantel-Cox test) and tumor volume differences between groups (Kolmogorov-Smirnov test) were performed using StatSoft Statistica statistical software. The 10-15% mortality rate in the 5 days following LEF or LEF-chemotherapy was considered as treatment-caused, therefore such cases of mortality were excluded.
Tumor volume determination: performed as described above in Example 1 of the Examples section.

[4] = system: DA3 mammary adenocarcinoma; assay: Winn assay: DA3 cells co-inoculated with splenocytes of cured mice; format: in vivo, BALB/c mice; settings: 10^5 DA3 cells + 10^7 splenocytes of mice cured via LEFCT-EC with taxol
B16-F10.9 melanoma [5] = assay: Surgery with taxol versus LEFCT-EC with taxol in B16-F10.9 melanoma; format: in vivo, C57BL/6 mice
Experimental: Comparison of surgery and LEFCT-EC: To compare the efficacy of LEFCT-EC to that of conventional surgery and chemotherapy treatments, C57BL/6 male mice (8-12 weeks old) were injected with 10^5 B16-F10.9 cells subcutaneously. Once the tumors reached 5 mm in diameter (11-17 days following inoculation), they were surgically removed. One experimental group received a single dose of taxol (20 mg/kg) subcutaneously in close proximity to the site of the operation one day following tumorectomy.

[6] = system: DA3 mammary adenocarcinoma; assay: Rechallenge with DA3 cells of mice cured by LEFCT-EC with taxol; format: in vivo, BALB/c mice; settings: challenged with 10^5 DA3 cells
Experimental: Effect of curative LEFCT-EC treatment with taxol on generation of anti DA3 tumor resistance: The resistance of mice previously cured of DA3 mammary carcinoma via LEFCT-EC treatment with taxol to tumor growth following challenge by inoculation with 10^5 DA3 cells 120-180 days following initial tumor inoculation was analyzed. […] The MSTs of first-time inoculated normal mice and challenged mice were 38.1 and 46.7 days, respectively. Thus, curative treatment of DA3 tumors via LEFCT-EC treatment with taxol has the capacity to induce significant protection against growth of such a tumor in cured mice challenged with a tumorigenic dose thereof.

[7] = chemotherapy alone, intratumoral, no LEF

CC(=O)O[C@H]1C(=O)[C@@]2(C)[C@H]([C@H](OC(=O)c3ccccc3)[C@]3(O)C[C@H](OC(=O)[C@H](O)[C@@H](NC(=O)c4ccccc4)c4ccccc4)C(C)=C1C3(C)C)[C@]1(OC(C)=O)CO[C@@H]1C[C@@H]2O [taxol, paclitaxel]
MST of challenged mice (B16-F10.9 melanoma [1]; mice cured by LEFCT-EC with the drug, challenged with 2×10^5 B16-F10.9 cells): 73.2 days
challenged mice that did not develop tumor (B16-F10.9 melanoma [1]; mice previously treated by LEFCT-EC with taxol): about 23.5%
survival time, Mean ([2]; LEF-chemotherapy with the drug): 73.8
survival time, Median ([2]; LEF-chemotherapy with the drug): 54.5
cure rate ([2]; LEF-chemotherapy, intratumoral taxol 20 mg/kg or bleomycin 30 U/kg, 180 days after tumor inoculation): 17%
survival time, Mean ([2]; drug alone, intratumoral): 43.9
survival time, Median ([2]; drug alone, intratumoral): 48
Tumor size (mean ± standard error) (B16-F10.9 melanoma [3]; LEF-CT (drug + LEF), cisplatin 4 mg/kg, bleomycin 8 U/kg, 5-FU 150 mg/kg, taxol 20 mg/kg): 71 ± 25 mm^3
mean survival time (MST) (B16-F10.9 melanoma [3]; LEF-chemotherapy: intratumoral drug + LEF about 40 V/cm 12 min, 120 days (cisplatin) or 180 days (taxol, bleomycin) after inoculation): 83.5 days
cure rate / animals alive and free of visible tumor (B16-F10.9 melanoma [3]; LEF-chemotherapy, 180 days after tumor inoculation): 26%
effect of drug alone on survival (B16-F10.9 melanoma [3]; [7]): no effect
mean survival time (MST) (B16-F10.9 melanoma [3]; [7]): 36.7 days
Tumor size (mean ± standard error) (B16-F10.9 melanoma [3]; intratumoral drug injection alone, same doses): 927 ± 177 mm^3
LEFCT-EC treated mice that died two months and later after treatment with pulmonary metastatic foci, free of primary tumor (B16-F10.9 melanoma [3]; pooled statement for cisplatin, taxol or bleomycin): About 10%
Mean survival time [4]: 39 days
Tumor size ([4]; 14 days after inoculation): 143 µL
cure rate (B16-F10.9 melanoma [5]; LEF-chemotherapy with taxol): 26%
survival extension (B16-F10.9 melanoma [5]; LEF-chemotherapy with taxol): 84 days
MST (B16-F10.9 melanoma [5]; surgery + taxol 20 mg/kg subcutaneously): 55 days
cure rate (B16-F10.9 melanoma [5]; surgery + taxol 20 mg/kg subcutaneously one day after tumorectomy): 13%
MST of challenged mice [6]: 46.7 days
